Patent publication US4349551A, “Penicillin derivatives and compositions containing them” (Beecham Group Limited, priority 1980, dated 1982)
≈ marks a conversion by molar mass, not a printed value. Like-named read-outs stand apart in the source and are kept apart here.

Assays:
[1] = tested on: K. aerogenes A; test: MIC against K. aerogenes A; assay type: cell-based; conditions: Klebsiella aerogenes
From the text: (§1) | MIC values (μg/ml) of the compounds of | Examples 1 and 2 against a number of | organisms important in human infections | Organism Agar Broth Agar Broth Agar

[2] = tested on: E. cloacae N1; test: MIC against E. cloacae N1; assay type: cell-based; conditions: Enterobacter cloacae, Agar
From the text: as §1

[3] = tested on: S. marcescens US 32; test: MIC against S. marcescens US 32; assay type: cell-based; conditions: Serratia marcescens, US32, Agar
From the text: as §1

[4] = tested on: E. coli JT 425; test: MIC against E. coli JT 425; assay type: cell-based; conditions: Escherichia coli, JT425, Agar
From the text: as §1

[5] = tested on: Ps. aeruginosa Dalgleish; test: MIC against Ps. aeruginosa Dalgleish; assay type: cell-based; conditions: Pseudomonas aeruginosa; Agar; Ps. aeruginosa Dalgleish 10^-2
From the text: as §1

[6] = tested on: E. coli NCTC 10413; test: MIC against E. coli NCTC 10413; assay type: cell-based; conditions: Escherichia coli
From the text: as §1

[7] = tested on: B. subtilis; test: MIC against B. subtilis; assay type: cell-based; conditions: Bacillus subtilis, Agar
From the text: as §1

[8] = tested on: S. aureus Russell; test: MIC against S. aureus Russell; assay type: cell-based; conditions: Staphylococcus aureus, Agar
From the text: as §1

[9] = tested on: N. catarrhalis 1502; test: MIC against N. catarrhalis 1502; assay type: cell-based; conditions: Agar
From the text: as §1

[10] = tested on: E. coli JT 4; test: MIC against E. coli JT 4; assay type: cell-based; conditions: Escherichia coli, JT4, Agar
From the text: as §1

[11] = tested on: S. aureus Oxford; test: MIC against S. aureus Oxford; assay type: cell-based; conditions: Staphylococcus aureus, Agar
From the text: as §1

[12] = tested on: P. rettgeri; test: MIC against P. rettgeri; assay type: cell-based; conditions: Providencia rettgeri, Agar
From the text: as §1

[13] = tested on: P. mirabilis C 977; test: MIC against P. mirabilis C 977; assay type: cell-based; conditions: Proteus mirabilis, C977, Agar
From the text: as §1

[14] = tested on: P. mirabilis 889; test: MIC against P. mirabilis 889; assay type: cell-based; conditions: Proteus mirabilis, Agar
From the text: as §1

[15] = tested on: S. faecalis I; test: MIC against S. faecalis I; assay type: cell-based; conditions: Enterococcus faecalis, Agar
From the text: as §1

[16] = tested on: Ps. aeruginosa NCTC 10662; test: MIC against Ps. aeruginosa NCTC 10662; assay type: cell-based; conditions: Agar
From the text: as §1

[17] = tested on: S. pyogenes ON 10; test: MIC against S. pyogenes ON 10; assay type: cell-based; conditions: Streptococcus pyogenes, ON10, Agar
From the text: as §1

[18] = tested on: P. morganii; test: MIC against P. morganii; assay type: cell-based; conditions: Morganella morganii, Agar
From the text: as §1

[19] = reconversion of the formyl ester to the parent 6-hydroxymethyl penicillin; assay type: physicochemical
Procedure: The benzyl ester from the previous example (101 mg, 0.15 mmol) in THF (5 ml) was added to prehydrogenated 10% palladium on charcoal (100 mg) in THF (5 ml), water (1 ml). After shaking with hydrogen for 0.5 hours, the catalyst was filtered from the solution and washed well with N sodium bicarbonate solution (40 ml). The filtrate was washed with ethyl acetate (2×40 ml), acidified to pH 1.5 with 1 N-hydrochloric acid and extracted with ethyl acetate (3×40 ml). The combined extracts were washed with brine, dried and evaporated to give the title compound (46 mg, 51%), δ [(CD3)2 CO] 1.12, 1.35 (6H, 2s, 2 x CH3) 1.20 (3H, t, NCH2 CH3), 3.3-3.8 (4H, m, NCH2 and piperazine CH2), 3.8-4.3 (4H, m, CH2 O and piperazine CH2), 4.70 (1H, s, C3-proton), 5.57 (1H, s, C5 -proton), 5.72 (1H, d, J 6 Hz, α-proton) 7.45 (5H, m, aromatic protons), 8.25 (1H, s, CHO), 8.48 ( 1H, s, NH), 10.08 (1H, d, J 6 Hz, NH).

[20] = Ps. aeruginosa NCTC 10662 10^-2
[21] = Pseudomonas aeruginosa, NCTC10662, Ps. aeruginosa NCTC 10662, read-out: MIC

Row | SMILES | MIC ([1]; Agar) [µg/mL] | MIC ([1]; Broth) [µg/mL] | MIC [2] [µg/mL] | MIC [3] [µg/mL] | MIC [4] [µg/mL] | MIC [5] [µg/mL] | MIC ([6]; NCTC10413, Agar) [µg/mL] | MIC ([6]; NCTC10413, Broth) [µg/mL] | MIC [7] [µg/mL] | MIC [8] [µg/mL] | MIC [10] [µg/mL] | MIC [11] [µg/mL] | MIC [12] [µg/mL] | MIC [13] [µg/mL] | MIC [14] [µg/mL] | MIC [15] [µg/mL] | MIC [16, 20] [µg/mL] | MIC [16, 21] [µg/mL] | MIC [17] [µg/mL] | MIC [18] [µg/mL] | further results
1 | CCN1CCN(C(=O)N[C@@H](C(=O)N[C@]2(CO)C(=O)N3[C@@H](C(=O)O)C(C)(C)S[C@@H]32)c2ccc(O)cc2)C(=O)C1=O [Example 2, 6,α-Hydroxymethyl-6,β-[D,α'-(4-ethyl-2,3-dioxopiperazine-1-carbonylamino)-p-hydroxyphenylacetamido]penicillanic acid] | 2.5 (≈ 4.44 µM) | 1 (≈ 1.77 µM) | 5 (≈ 8.87 µM) | 5 (≈ 8.87 µM) | 50 (≈ 88.7 µM) | > 100 | 5 (≈ 8.87 µM) | 5 (≈ 8.87 µM) | > 100 | > 100 | 100 (≈ 177 µM) | > 100 | 5 (≈ 8.87 µM) | 2.5 (≈ 4.44 µM) | 2.5 (≈ 4.44 µM) | > 100 | > 100 | > 100 | 2.5 (≈ 4.44 µM) | 5 (≈ 8.87 µM) | MIC [9]: 1 µg/mL (≈ 1.77 µM)
2 | CCN1CCN(C(=O)N[C@@H](C(=O)N[C@]2(CO)C(=O)N3[C@@H](C(=O)O)C(C)(C)S[C@@H]32)c2ccccc2)C(=O)C1=O [Example 1, 6,α-Hydroxymethyl-6,β-[D,α'-(4-ethyl-2,3-dioxopiperazine-1-carbonylamino)-phenylacetamido]penicillanic acid] | 5 (≈ 9.13 µM) | 100 (≈ 183 µM) | 25 (≈ 45.7 µM) | 50 (≈ 91.3 µM) | 50 (≈ 91.3 µM) | > 100 | 25 (≈ 45.7 µM) | 10 (≈ 18.3 µM) | > 100 | > 100 | 100 (≈ 183 µM) | > 100 | 50 (≈ 91.3 µM) | 10 (≈ 18.3 µM) | 5 (≈ 9.13 µM) | > 100 | > 100 | > 100 | 25 (≈ 45.7 µM) | 25 (≈ 45.7 µM) | MIC [9]: 1 µg/mL (≈ 1.83 µM)
3 | CCN1CCN(C(=O)N[C@@H](C(=O)N[C@]2(COC=O)C(=O)N3[C@@H](C(=O)O)C(C)(C)S[C@@H]32)c2ccccc2)C(=O)C1=O [Example 4, 6,α-Formyloxymethyl-6,β-[D,α'-(4-ethyl-2,3-dioxopiperazine-1-carbonylamino)-phenylacetamido]penicillanic acid] |  |  |  |  |  |  |  |  |  |  |  |  |  |  |  |  |  |  |  |  | reconversion to the 6-hydroxymethyl compound ([19]; in the solvents used for h.p.l.c.): complete and instantaneous; parent 6-hydroxymethyl penicillin formed on preparation of the sodium salt ([19]; precipitation from acetone using 2 N sodium ethyl hexanoate in methyl isobutyl ketone): an appreciable amount
4 | CCN1CCN(C(=O)NC(C(=O)N[C@]2(CO)C(=O)N3[C@@H](C(=O)O)C(C)(C)S[C@@H]32)c2csc(N)n2)C(=O)C1=O (mixture of isomers) [Example 3, 6,α-Hydroxymethyl-6,β-[DL-α'-(4-ethyl-2,3-dioxopiperazine-1-carbonylamino)2-aminothiazole-4-acetamido]penicillanic acid] | 1 |  | 25 | 50 | 100 |  | 10 |  | > 100 | > 100 | > 100 | > 100 | 25 | 10 | 10 | 100 | > 100 | > 100 | > 100 | 10 | 
